Here are results for four compounds from patent publication US20130252944A1, “NOVEL FUSED PYRAZOLE DERIVATIVES AND THEIR USE AS ALLOSTERIC MODULATORS OF METABOTROPIC GLUTAMATE RECEPTORS” (priority 2010, published 2013).

Some results are limits rather than exact numbers.

T1 sequence (Q14833 33-912): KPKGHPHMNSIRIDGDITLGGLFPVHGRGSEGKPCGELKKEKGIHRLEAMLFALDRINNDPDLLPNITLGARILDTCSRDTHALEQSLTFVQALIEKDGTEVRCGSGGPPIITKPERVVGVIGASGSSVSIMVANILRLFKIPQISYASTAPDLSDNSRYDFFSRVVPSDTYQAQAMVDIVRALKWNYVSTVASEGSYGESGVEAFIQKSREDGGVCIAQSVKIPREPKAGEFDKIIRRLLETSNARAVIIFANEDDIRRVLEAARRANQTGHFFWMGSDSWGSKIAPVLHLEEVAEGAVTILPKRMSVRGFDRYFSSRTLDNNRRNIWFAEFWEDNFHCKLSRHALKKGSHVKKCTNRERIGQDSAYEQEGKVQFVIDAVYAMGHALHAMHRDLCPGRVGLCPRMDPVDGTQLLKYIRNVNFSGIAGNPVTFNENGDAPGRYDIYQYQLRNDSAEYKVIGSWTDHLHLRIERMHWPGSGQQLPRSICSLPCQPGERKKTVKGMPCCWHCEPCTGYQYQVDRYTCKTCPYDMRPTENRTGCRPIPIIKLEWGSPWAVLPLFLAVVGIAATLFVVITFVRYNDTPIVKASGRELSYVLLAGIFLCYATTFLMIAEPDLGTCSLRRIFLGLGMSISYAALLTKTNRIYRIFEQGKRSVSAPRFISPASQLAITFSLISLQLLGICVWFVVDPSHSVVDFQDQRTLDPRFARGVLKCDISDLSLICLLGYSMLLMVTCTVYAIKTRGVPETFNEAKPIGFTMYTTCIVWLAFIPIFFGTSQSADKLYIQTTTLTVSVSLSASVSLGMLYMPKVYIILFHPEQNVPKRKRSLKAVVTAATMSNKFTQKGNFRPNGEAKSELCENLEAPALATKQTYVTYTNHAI

This assay concerns the target T1, recombinant human mGluR4a receptors (Homo sapiens, UniProt Q14833).
T1 construct: expressed in transfected cells
The assay can be described thus: Fluorescent cell based Ca2+ mobilization assay (FLIPR) on HEK-293 cells expressing human mGluR4. Particulars: positive allosteric modulation in presence of EC25 glutamate; HEK-293 hmGluR4; mean of at least three independent experiments in duplicate; read-out: Ca^2+ Flux (mean EC50). From the text:
mGluR4 Assay on HEK-Expressing Human mGluR4
The compounds of the present invention are positive allosteric modulators of mGluR4 receptor. Their activity was examined on recombinant human mGluR4a receptors by detecting changes in intracellular Ca^2+concentration, using the fluorescent Ca^2+-sensitive dye Fluo4-(AM) and a Fluorometric Imaging Plate Reader (FLIPR, Molecular Devices, Sunnyvale, Calif.).
The cDNA encoding the human metabotropic glutamate receptor (hmGluR4), (accession number NM_000841.1, NCBI Nucleotide database browser), was subcloned into an expression vector containing also the hygromycin resistance gene. In parallel, the cDNA encoding a G protein allowing redirection of the activation signal to intracellular calcium flux was subcloned into a different expression vector containing also the puromycin resistance gene. Transfection of both these vectors into HEK293 cells with PolyFect reagent (Qiagen) according to supplier's protocol, and hygromycin and puromycin treatment allowed selection of antibiotic resistant cells which had integrated stably one or more copies of the plasmids. Positive cellular clones expressing hmGluR4 were identified in a functional assay measuring changes in calcium fluxes in response to glutamate or selective known mGluR4 orthosteric agonists and antagonists.
HEK-293 cells expressing hmGluR4 were maintained in media containing DMEM, dialyzed Fetal Calf Serum (10%), Glutamax™ (2 mM), Penicillin (100 units/mL), Streptomycin (100 μg/mL), Geneticin (100 μg/mL) and Hygromycin-B (40 μg/mL) and puromycin (1 μg/mL) at 37° C./5% CO2.
Human mGluR4 HEK-293 cells were plated out 24 hours prior to FLIPR^384 assay in black-walled, clear-bottomed, poly-L-ornithine-coated 384-well plates at a density of 25,000 cells/well in a glutamine/glutamate free DMEM medium containing foetal bovine serum (10%), penicillin (100 units/mL) and streptomycin (100 μg/mL) at 37° C./5% CO2.
On the day of the assay, the medium was aspirated and the cells were loaded with a 3 μM solution of Fluo4-AM (LuBioScience, Lucerne, Switzerland) in 0.03% pluronic acid. After 1 hour at 37° C./5% CO2, the non incorporated dye was removed by washing cell plate with the assay buffer and the cells were left in the dark at room temperature for […] before testing. All assays were performed in a pH=7.4 buffered-solution containing 20 mM HEPES, 143 mM NaCl, 6 mM KCl, 1 mM MgSO4, 1 mM CaCl2, 0.125 mM sulfapyrazone and 0.1% glucose.
After 10 s of basal fluorescence recording, various concentrations of the compounds of the invention were added to the cells. Changes in fluorescence levels were first monitored for 180 s in order to detect any agonist activity of the compounds. Then the cells were stimulated by an EC25 glutamate concentration for an additional 110 s in order to measure enhancing activities of the compounds of the invention. EC25 glutamate concentration is the concentration giving 25% of the maximal glutamate response.
The concentration-response curves of representative compounds of the present invention were generated using the Prism GraphPad software (Graph Pad Inc, San Diego, USA). The curves were fitted to a four-parameter logistic equation:
(Y=Bottom+(Top−Bottom)/(1+10̂((LogEC50−X)*Hill Slope)
allowing the determination of EC50 values.
The Table 3 below represents the mean EC50 obtained from at least three independent experiments of selected molecules performed in duplicate.
As for `Cc1nc(Nc2nc3c(s2)C(=O)CCc2n[nH]cc2-3)ncc1F` [Compound 1-30, 2-(5-Fluoro-4-methyl-pyrimidin-2-ylamino)-6,8-dihydro-5H-3-thia-1,7,8-triaza-cyclopenta[e]azulen-4-one], the EC50 was 1 to 10 µM.
`Cc1ccnc(Nc2nc3c(s2)COC(c2ccccn2)c2[nH]ncc2-3)n1` (stereo not shown) [Compound 1-31, (4-Methyl-pyrimidin-2-yl)-(6-pyridin-2-yl-6,7-dihydro-4H-5-oxa-3-thia-1,7,8-triaza-cyclopenta[e]azulen-2-yl)-amine]: the concentration giving a half-maximal response (EC50) was less than 0.1 µM.
The same measure for “(6-Isopropyl-6,7-dihydro-4H-5-oxa-3-thia-1,7,8-triaza-cyclopenta[e]azulen-2-yl)-(5-methyl-[1,2,4]thiadiazol-3-yl)-amine [Compound 1-25]”: 0.1 to 1 µM; for “Dimethyl-carbamic acid 2-(4-methyl-pyrimidin-2-ylamino)-4,5,6,6a,7,8-hexahydro-3-thia-1,7,8-triaza-cyclopenta[e]azulen-5-yl ester [Compound 1-6]”: 0.1 to 1 µM.
